Columns and labels:
[1] = system: F18-positive E. coli strain 107/86; experiment: Carbohydrate inhibition in the in vitro villous adhesion assay (bacteria pre-incubated with saccharide); assay type: cell-based, Escherichia coli; conditions: for Inhibition of F18+ E. coli adherence to porcine intestinal villi: Example 18, 1 mg saccharide in 100 μl PBS
Excerpt: The nature of the F18R on porcine small intestinal villous enterocytes was investigated using an in vitro villous adhesion inhibition assay (Cox, E., Houvenaghel, A., 1993. Vet. Microbiol. 34(1), 7-18; Verdonck, F., Cox, E., van Gog, K., Van der Stede, Y., Duchateau, L., Deprez, P., Goddeeris, B. M., 2002. Vaccine 20(23-24), 2995-3004). Briefly, a 20 cm intestinal segment was collected from the mid jejunum of a euthanized pig, rinsed three times with ice cold PBS, and fixed with Krebs-Henseleit buffer (160 mM, pH 7.4) containing 1% (v/v) formaldehyde for 30 min at 4° C. Thereafter, the villi were gently scraped from the mucosae with a glass slide and stored in Krebs-Henseleit buffer at 4° C. Treatment of villi with acetone, methanol, 1% Triton® X-100, 10 mM NaIO4 in 0.2M sodium acetate, pH 4.5, or 0.2M sodium acetate, pH 4.5, without NaIO4, respectively, was performed at room temperature on a rotating wheel in a volume of 500 μl during 1 h. Next, the villi were washed 6 times with Krebs-Henseleit buffer followed by addition of 4×10^8 bacteria of the F18 positive reference E. coli strain (107/86), or the F4ac-expressing E. coli strain GIS 26, to an average of 50 villi in a total volume of 500 μl PBS, supplemented with 1% (w/v) D-mannose in order to prevent adhesion mediated by type 1 pili. These mixtures were incubated at room temperature for 1 h while being gently shaken. Villi were examined by phase-contrast microscopy at a magnification of 600, and the number of bacteria adhering along 50 μm brush border was quantitatively evaluated by counting the number of adhering bacteria at 20 randomly selected places, after which the mean bacterial adhesion was calculated.
The F18-positive E. coli strain 107/86 (8×10^7 bacteria) was incubated with different concentrations (10 mg/ml, 1 mg/ml, […]) of blood group H type 1 pentasaccharide (Fucα2Galβ3GlcNAcβ3Galβ4Glc) or lacto-N-tetraose saccharide (Galβ3GlcNAcβ3Galβ4Glc) (Glycoseparations, Moscow, Russia) in a final volume of 100 μl PBS, for 1 h at room temperature, while being gently shaken. The mixtures were then added to the villi, and again incubated for 1 h at room temperature with gentle shaking. Thereafter, the villi were examined by phase-contrast microscopy at a magnification of 600, and the number of bacteria adhering along a […] brush border was quantitatively evaluated by counting the number of adhering bacteria at 20 randomly selected places, after which the mean bacterial adhesion was calculated. Villi of two different F18R-positive pigs were used, and the countings were performed in triplicate.
The F18-positive E. coli strain 107/86 (8×10^7 bacteria) was incubated with 1 mg of blood group H type 1 pentasaccharide (H5-1, Fucα2Galβ3GlcNAcβ3Galβ4Glc), blood group A type 1 hexasaccharide (A6-1, GalNAcα3(Fucα2)Galβ3GlcNAcβ3Galβ4Glc), blood group B type 1 hexasaccharide (B6-1, Galα3(Fucα2)Galβ3GlcNAcβ3Galβ4Glc) or lacto-N-tetraose saccharide (LNT, Galβ3GlcNAcβ3Galβ4Glc) (Elicityl, Grenoble, France) in a final volume of 100 μl PBS, for 1 h at room temperature, while being gently shaken. The mixtures were then added to the villi, and again incubated for 1 h at room temperature with gentle shaking. Thereafter, the villi were examined by phase-contrast microscopy, and adhering bacteria were quantified as described above. Villi of two different F18R-positive pigs were used, and the countings were performed in triplicate.
The mixtures were then added to the villi, and again incubated for 1 h at room temperature with gentle shaking. Thereafter, the villi were examined by phase-contrast microscopy, and adhering bacteria were quantified as described above. Villi of one F18R-positive pig was used, and the countings were performed in duplicate.

[2] = system: recombinant F18 fimbriae-expressing Escherichia coli (pIH120); experiment: Chromatogram binding assay: 35S-labelled F18 fimbriae-expressing E. coli to glycosphingolipids on thin-layer chromatograms; conditions: for Binding of F18-fimbriated E. coli (in words): chromatogram binding assay, F18-expressing strain HB101(pIH120); for Detection limit of binding of F18-fimbriated E. coli: dilutions of glycosphingolipids on thin-layer chromatograms
Experimental: Recombinant E. coli strains expressing whole F18 fimbriae (HB101(pIH120), or F18 fimbriae with deletion of the FedF adhesive subunit (HB101(pIH126)) (Imberechts et al., 1992; 1996), were grown on Iso Sensitest agar plates (Oxoid, Basingstoke, Hampshire, England) supplemented with ampicillin (100 μg/ml) at 37° C. over night. For metabolic labeling, the culture plates were supplemented with 10 μl ^35S-methionine (400 μCi; Amersham Pharmacia Biotech). Bacteria were harvested, washed three times in PBS, and resuspended in PBS containing 2% (w/v) bovine serum albumin, 0.1% (w/v) NaN3 and 0.1% (w/v) Tween 20 (BSA/PBS/TWEEN) to a bacterial density of 1×10^8 colony forming units/ml.
Aluminium- or glass-backed silica gel 60 high performance thin-layer chromatography plates (Merck, Darmstadt, Germany) were used for thin-layer chromatography, and eluted with chloroform/methanol/water (60:35:8, by volume) as solvent system. The different glycosphingolipids were applied to the plates in quantities of 0.002-4 μg of pure glycosphingolipids and 40 μg of glycosphingolipid mixtures. Chemical detection was done with anisaldehyde (Waldi D, 1962. Sprühreagentien für die dünnschicht-chromatographie, p. 496-515. In Stahl, E. (ed.), Dünnschicht-Chromatographie. Springer-Verlag, Berlin).
Binding of radiolabelled bacteria to glycosphingolipids on thin-layer chromatograms was done as described previously (Hansson G C, Karlsson K-A, Larson G, Strömberg N, Thurin J, 1985. Anal. Biochem. 146:158-163). Dried chromatograms were dipped in diethylether/n-hexane (1:5 v/v) containing 0.5% (w/v) polyisobutylmethacrylate for 1 min, dried, and then blocked with BSA/PBS/TWEEN for 2 h at room temperature. Thereafter, the plates were incubated with ^35S-labeled bacteria (1-5×10^6 cpm/ml) diluted in BSA/PBS/TWEEN for another 2 h at room temperature. After washing six times with PBS, and drying, the thin-layer plates were autoradiographed for 12 h using XAR-5 x-ray films (Eastman Kodak, Rochester, N.Y.).

[3] = 1 h pre-incubation, villi of two pigs
[4] = Example 17, 1 mg/ml saccharide, 100 μl PBS, 1 h pre-incubation, villi of two pigs
[5] = Example 17, 10 mg/ml saccharide, 100 μl PBS, 1 h pre-incubation, villi of two pigs
[6] = Example 17, 100 mg/ml saccharide (so in the source), 100 μl PBS, 1 h pre-incubation, villi of two pigs

CC(=O)NC1C(OC2C(O)C(CO)OC(OC3C(O)C(CO)OC(OC4C(O)C(CO)OC(OC5C(CO)OC(O)C(O)C5O)C4O)C3NC(C)=O)C2OC2OC(C)C(O)C(O)C2O)OC(CO)C(O)C1O (stereo not shown) [A6-1, GalNAcα3(Fucα2)Galβ3GlcNAcβ3Galβ4Glc]
Inhibition of F18+ E. coli adherence to porcine intestinal villi [1, 3]: 72.9%

CC(=O)NC1C(OC2C(O)C(CO)OC(OC3C(CO)OC(O)C(O)C3O)C2O)OC(CO)C(O)C1OC1OC(CO)C(O)C(OC2OC(CO)C(O)C(O)C2O)C1OC1OC(C)C(O)C(O)C1O (stereo not shown) [B6-1, Galα3(Fucα2)Galβ3GlcNAcβ3Galβ4Glc]
Inhibition of F18+ E. coli adherence to porcine intestinal villi [1, 3]: 86.8%

CC(=O)N[C@H]1[C@H](O[C@H]2[C@@H](O)[C@@H](CO)O[C@@H](O[C@H]3[C@H](O)[C@@H](O)C(O)O[C@@H]3CO)[C@@H]2O)O[C@H](CO)[C@@H](O)[C@@H]1O[C@@H]1O[C@H](CO)[C@H](O)[C@H](O)[C@H]1O[C@@H]1O[C@@H](C)[C@@H](O)[C@@H](O)[C@@H]1O (stereo partly shown) [H5-1, Fucα2Galβ3GlcNAcβ3Galβ4Glc]
Reduction (inhibition) of adherence of F18-positive E. coli to porcine intestinal villi [1, 4]: 68.5%
Reduction (inhibition) of adherence of F18-positive E. coli to porcine intestinal villi [1, 5]: 87.1%
Inhibition of adherence of F18-positive E. coli to porcine intestinal villi [1, 6]: 1.4%
Inhibition of F18+ E. coli adherence to porcine intestinal villi [1, 3]: 52.4%

CC(=O)N[C@H]1[C@H](O[C@H]2[C@@H](O)[C@@H](CO)O[C@@H](O[C@H]3[C@H](O)[C@@H](O)C(O)O[C@@H]3CO)[C@@H]2O)O[C@H](CO)[C@@H](O)[C@@H]1O[C@@H]1O[C@H](CO)[C@H](O)[C@H](O)[C@H]1O (stereo partly shown) [LNT, Galβ3GlcNAcβ3Galβ4Glc, reference compound]
Reduction (inhibition) of adherence of F18-positive E. coli to porcine intestinal villi [1, 4]: 5.8%
Reduction (inhibition) of adherence of F18-positive E. coli to porcine intestinal villi [1, 5]: 5.8%
Inhibition of adherence of F18-positive E. coli to porcine intestinal villi [1, 6]: 4.2%
Inhibition of F18+ E. coli adherence to porcine intestinal villi [1, 3]: 2.8%

C[C@@H]1O[C@@H](O[C@H]2C(O)O[C@H](CO)[C@H](O)[C@@H]2O)[C@@H](O)[C@H](O)[C@@H]1O (stereo partly shown) [blood group H disaccharide, Fucα2Gal]
Inhibition of adherence of F18-positive E. coli to porcine intestinal villi ([1]; Example 21, 0.2 mg in 100 μl PBS, villi of one pig): 5.1%
Reduction of adherence of F18-positive E. coli to porcine intestinal villi ([1]; Example 21, 1 mg in 100 μl PBS, villi of one pig): 83.7%

Fucα2Galβ3(Fucα4)GlcNAcβ3Galβ4Glcβ1Cer [No. 22, reference compound]
Binding of F18-fimbriated E. coli (in words) [2]: not recognized

Fucα2Galβ3GalNAcβ4Galβ4Glcβ1Cer [No. 11, reference compound]
Binding of F18-fimbriated E. coli (in words) [2]: absence of binding

Fucα2Galβ3GlcNAcβ3Galβ4Glcβ1Cer [No. 23]
Binding of F18-fimbriated E. coli (in words) ([2]; listed as H type 1 pentaglycosylceramide): bound
Detection limit of binding of F18-fimbriated E. coli [2]: 2 µg

Fucα2Galβ3GlcNAcβ3Galβ4Glcβ1Cer [O-I]
Binding of F18-fimbriated E. coli (in words) [2]: F18 fimbriae-binding

Fucα2Galβ4GlcNAcβ3Galβ4Glcβ1Cer [No. 14, reference compound]
Binding of F18-fimbriated E. coli (in words) [2]: no type 2 core counterparts of these compounds were recognized

GalNAcα3(Fucα2)Galβ3(Fucα4)GlcNAcβ3Galβ4Glcβ1Cer [No. 26]
Binding of F18-fimbriated E. coli (in words) [2]: bound
Detection limit of binding of F18-fimbriated E. coli [2]: 0.8 µg

GalNAcα3(Fucα2)Galβ3GalNAcβ3Galα4Galβ4Glcβ1Cer [No. 32]
Detection limit of binding of F18-fimbriated E. coli [2]: approximately 0.8 μg

GalNAcα3(Fucα2)Galβ3GlcNAcβ3Galβ4Glcβ1Cer [A-I]
Binding of F18-fimbriated E. coli (in words) [2]: F18-fimbriated E. coli binding

GalNAcα3(Fucα2)Galβ3GlcNAcβ3Galβ4Glcβ1Cer [No. 25]
Binding of F18-fimbriated E. coli (in words) ([2]; listed as A type 1 hexaglycosylceramide): bound
Detection limit of binding of F18-fimbriated E. coli [2]: approximately 0.08 μg

GalNAcα3(Fucα2)Galβ4(Fucα3)GlcNAcβ3Galβ4Glcβ1Cer [No. 19, reference compound]
Binding of F18-fimbriated E. coli (in words) [2]: no type 2 core counterparts of these compounds were recognized

GalNAcα3(Fucα2)Galβ4GlcNAcβ3Galβ4Glcβ1Cer [No. 17, reference compound]
Binding of F18-fimbriated E. coli (in words) [2]: no type 2 core counterparts of these compounds were recognized

Galα3(Fucα2)Galβ3(Fucα4)GlcNAcβ3Galβ4Glcβ1Cer [No. 27]
Binding of F18-fimbriated E. coli (in words) [2]: bound

Galα3(Fucα2)Galβ3GlcNAcβ3Galβ4Glcβ1Cer [No. 24]
Binding of F18-fimbriated E. coli (in words) [2]: bound
Detection limit of binding of F18-fimbriated E. coli [2]: approximately 0.08 μg

Galα3(Fucα2)Galβ4GlcNAcβ3Galβ4Glcβ1Cer [No. 16, reference compound]
Binding of F18-fimbriated E. coli (in words) [2]: no type 2 core counterparts of these compounds were recognized

Galβ3GlcNAcβ3Galβ4Glcβ1Cer [No. 20, reference compound]
Binding of F18-fimbriated E. coli (in words) [2]: devoid of FedF-mediated binding activity

Source: patent US8703722B2, “Inhibitors of F18+ E coli binding” (priority 2008, dated 2014)
